Patent US20250163057A1, “DCN-1 MODULATING COMPOUNDS AND METHODS OF USE THEREOF” (Cellarity, Inc., priority 2023, published 2025)
Where two headings read alike, the source gives them in different places.

Molecular target: DCN1 (DCUND1) protein PONY domain (Homo sapiens (Human), UniProt Q96GG9)
Assay: TR-FRET assay, DCN1 binding with FAM-labeled probe
Description: A TR-FRET assay was performed to evaluate the ability of the compounds to bind the DCN-1 protein.
The TR-FRET assay was designed following the Scott et al. protocol (Scott et al., Nat Chem Biol. 2017 August; 13(8): 850-857. Doi:10.1038/nchembio.2386). The recombinant form of the DCN1 (DCUND1) protein PONY domain was produced using an E. coli expression system at Viva Biotech (China). The DCN1 protein was biotinylated (EZ sulfo-NHS-LC-biotin; Thermofisher) for labeling with streptavidin terbium (Tb) cryptate in the reaction. The probe was changed to a non-covalent DCN1 inhibitor labeled with carboxyfluorescein (FAM; Zhou et al., Nat Commun. 2017; 8: 1150. Doi: 10.1038/s41467-017-01243-7). Buffer conditions were modified to enhance protein stability by exchanging Tween20 for TritonX and increasing NaCl to 200 mM. The compounds were screened against 5 nM DCN1 and 20 nM FAM-probe or 0.31 nM DCN1 and 900 nM total probe (100 nM FAM-labeled plus 800 nM unlabeled). The TR-FRET ratio between Tb-DCN1 and the FAM-labeled probe was measured in a 384-well opti-plate (Perkin Elmer) using a plate reader (BMG) at 1, 5, and 24 hrs after treatment with compound (final DMSO concentration of 0.1%).

[1] = 24 hr after treatment with compound, read-out: TR FRET IC50 24 hr
[2] = TR FRET IC50 1 hr (nM), 1 hr after treatment with compound

Sequence of DCN1 (DCUND1) protein PONY domain (Q96GG9 60-248): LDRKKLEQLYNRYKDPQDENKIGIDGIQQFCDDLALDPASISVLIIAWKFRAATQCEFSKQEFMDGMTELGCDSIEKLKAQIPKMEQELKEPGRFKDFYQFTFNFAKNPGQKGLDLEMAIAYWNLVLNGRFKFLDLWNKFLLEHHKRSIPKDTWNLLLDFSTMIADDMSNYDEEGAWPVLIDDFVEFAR

SMILES | IC50 [1] [nM] | IC50 [2] [nM] | IC50 (read-out: TR FRET IC50 1 hr, 1 hr after treatment with compound) [nM]
CCN1C(=O)[C@@H](NC(=O)c2cccc(C(F)(F)F)c2)[C@@H](c2ccc(F)cc2)c2c(C(=O)N3CCC[C@@H]3C#N)nn(-c3ccccc3)c21 (mixture of isomers) [Compound I-94] | 200 to 1000 | 200 to 1000 | –
CCN1C(=O)[C@@H](NC(=O)c2cccc(C(F)(F)F)c2)[C@@H](c2ccc(F)cc2)c2c(C(=O)N3CC[C@H](C#N)C3)nn(-c3ccccc3)c21 (mixture of isomers) [Compound I-137] | 200 to 1000 | 200 to 1000 | –
CCN1C(=O)[C@@H](NC(=O)c2cccc(C(F)(F)F)c2)[C@@H](c2ccc(F)cc2)c2c(C(=O)N[C@H](C)C#N)nn(-c3ccccc3)c21 (mixture of isomers) [Compound I-157] | 200 to 1000 | 1000 to 3000 | –
C/C=C/S(=O)(=O)NCc1nn(-c2ccccc2)c2c1[C@H](c1ccc(F)cc1)[C@H](NC(=O)c1cccc(C(F)(F)F)c1)C(=O)N2CC (racemic) [Compound I-6] | ≤ 200 | 200 to 1000 | –
CCN1C(=O)[C@@H](NC(=O)c2cccc(C(F)(F)F)c2)[C@@H](c2ccc(F)cc2)c2c([C@H](O)CNC#N)nn(-c3ccccc3)c21 (racemic) [Compound I-9, rac-N-((4R,5R)-3-(2-cyanamido-1-hydroxyethyl)-7-ethyl-4-(4-fluorophenyl)-6-oxo-1-phenyl-4,5,6,7-tetrahydro-1H-pyrazolo[3,4-b]pyridin-5-yl)-3-(trifluoromethyl)benzamide] | 1000 to 3000 | 200 to 1000 | –
CCN1C(=O)[C@@H](NC(=O)c2cccc(C(F)(F)F)c2)[C@@H](c2ccc(F)cc2)c2c(NC(=O)C#CCN3CCOCC3)nn(-c3ccccc3)c21 (racemic) [Compound I-11, rac-N-((4R,5R)-7-ethyl-4-(4-fluorophenyl)-3-(4-morpholinobut-2-ynamido)-6-oxo-1-phenyl-4,5,6,7-tetrahydro-1H-pyrazolo[3,4-b]pyridine-5-yl)-3-(trifluoromethyl)benzamide] | ≤ 200 | 200 to 1000 | –
C/C=C(\CN1CCOCC1)C(=O)NCc1nn(-c2ccccc2)c2c1[C@H](c1ccc(F)cc1)[C@H](NC(=O)c1cccc(C(F)(F)F)c1)C(=O)N2CC (racemic) [Compound I-14] | ≤ 200 | – | ≤ 200
CCN1C(=O)[C@@H](NC(=O)c2cccc(C(F)(F)F)c2)[C@@H](c2ccc(F)cc2)c2c(CNC(=O)/C=C/C(=O)NCCO)nn(-c3ccccc3)c21 (racemic) [Compound I-15, rac-N1-(((4R,5R)-7-ethyl-4-(4-fluorophenyl)-6-oxo-1-phenyl-5-(3-(trifluoromethyl)benzamido)-4,5,6,7-tetrahydro-1H-pyrazolo[3,4-b]pyridine-3-yl)methyl)-N4-(2-hydroxyethyl)fumaramide] | 1000 to 3000 | 1000 to 3000 | –
C=C(CC(=O)OC)C(=O)NCc1nn(-c2ccccc2)c2c1[C@H](c1ccc(F)cc1)[C@H](NC(=O)c1cccc(C(F)(F)F)c1)C(=O)N2CC (racemic) [Compound I-17] | 1000 to 3000 | 1000 to 3000 | –
C=C(Cc1nn(-c2ccccc2)c2c1[C@H](c1ccc(F)cc1)[C@H](NC(=O)c1cccc(C(F)(F)F)c1)C(=O)N2CC)C(=O)O (racemic) [Compound I-21, rac-2-(((4R,5R)-7-ethyl-4-(4-fluorophenyl)-6-oxo-1-phenyl-5-(3-(trifluoromethyl)benzamido)-4,5,6,7-tetrahydro-1H-pyrazolo[3,4-b]pyridin-3-yl)methyl)acrylic acid] | 1000 to 3000 | 1000 to 3000 | –
CCN1C(=O)[C@@H](NC(=O)c2cccc(C(F)(F)F)c2)[C@@H](c2ccc(F)cc2)c2c(CNC(=O)C3(C#N)CCOCC3)nn(-c3ccccc3)c21 (racemic) [Compound I-22, rac-4-cyano-N-(((4R,5R)-7-ethyl-4-(4-fluorophenyl)-6-oxo-1-phenyl-5-(3-(trifluoromethyl)benzamido)-4,5,6,7-tetrahydro-1H-pyrazolo[3,4-b]pyridine-3-yl)methyl)tetrahydro-2H-pyran-4-carboxamide] | 1000 to 3000 | 1000 to 3000 | –
CCN1C(=O)[C@@H](NC(=O)c2cccc(C(F)(F)F)c2)[C@@H](c2ccc(F)cc2)c2c(C/C=C/C(=O)NCCCO)nn(-c3ccccc3)c21 (racemic) [Compound I-24] | 1000 to 3000 | 1000 to 3000 | –
CCN1C(=O)[C@@H](NC(=O)c2cccc(C(F)(F)F)c2)[C@@H](c2ccc(F)cc2)c2c(CNC(=O)C3=CCCN(C)C3)nn(-c3ccccc3)c21 (racemic) [Compound I-28] | ≤ 200 | 200 to 1000 | –
CCN1C(=O)[C@@H](NC(=O)c2cccc(C(F)(F)F)c2)[C@@H](c2ccc(F)cc2)c2c(C(=O)NC(C)(C)C#N)nn(-c3ccccc3)c21 (racemic) [Compound I-31, rac-(4R,5R)—N-(2-cyanopropan-2-yl)-7-ethyl-4-(4-fluorophenyl)-6-oxo-1-phenyl-5-(3-(trifluoromethyl)benzamido)-4,5,6,7-tetrahydro-1H-pyrazolo[3,4-b]pyridine-3-carboxamide] | 1000 to 3000 | 1000 to 3000 | –
CCN1C(=O)[C@@H](NC(=O)c2cccc(C(F)(F)F)c2)[C@@H](c2ccc(F)cc2)c2c(C/C=C/C(=O)NCCO)nn(-c3ccccc3)c21 (racemic) [Compound I-36] | 1000 to 3000 | 1000 to 3000 | –
CCN1C(=O)[C@@H](NC(=O)c2cccc(C(F)(F)F)c2)[C@@H](c2ccc(F)cc2)c2c(/C=C3\CCC(=O)N3)nn(-c3ccccc3)c21 (racemic) [Compound I-39, rac-N-((4R,5R)-7-ethyl-4-(4-fluorophenyl)-6-oxo-3-((E)-(5-oxopyrrolidin-2-ylidene)methyl)-1-phenyl-4,5,6,7-tetrahydro-1H-pyrazolo[3,4-b]pyridin-5-yl)-3-(trifluoromethyl)benzamide] | 1000 to 3000 | 1000 to 3000 | –
CCN1C(=O)[C@@H](NC(=O)c2cccc(C(F)(F)F)c2)[C@@H](c2ccc(F)cc2)c2c(C/C=C/C(=O)N(C)C)nn(-c3ccccc3)c21 (racemic) [Compound I-41] | 1000 to 3000 | 1000 to 3000 | –
CCN1C(=O)[C@@H](NC(=O)c2cccc(C(F)(F)F)c2)[C@@H](c2ccc(F)cc2)c2c(C(C)(C)N(C)C#N)nn(-c3ccccc3)c21 (racemic) [Compound I-42, rac-N-((4R,5R)-7-ethyl-4-(4-fluorophenyl)-3-(2-(N-methylcyanamido)propan-2-yl)-6-oxo-1-phenyl-4,5,6,7-tetrahydro-1H-pyrazolo[3,4-b]pyridin-5-yl)-3-(trifluoromethyl)benzamide] | 1000 to 3000 | 1000 to 3000 | –
CCN1C(=O)[C@@H](NC(=O)c2cccc(C(F)(F)F)c2)[C@@H](c2ccc(F)cc2)c2c(CC/C=C\C(=O)NC)nn(-c3ccccc3)c21 (racemic) [Compound I-43] | 1000 to 3000 | 200 to 1000 | –
CCN1C(=O)[C@@H](NC(=O)c2cccc(C(F)(F)F)c2)[C@@H](c2ccc(F)cc2)c2c(CNC(=O)/C=C/C(=O)OC(C)(C)C)nn(-c3ccccc3)c21 (racemic) [Compound I-45, tert-butyl I-4-((((4S,5S)-7-ethyl-4-(4-fluorophenyl)-6-oxo-1-phenyl-5-(3-(trifluoromethyl)benzamido)-4,5,6,7-tetrahydro-1H-pyrazolo[3,4-b]pyridine-3-yl)methyl)amino)-4-oxobut-2-enoate] | ≤ 200 | 1000 to 3000 | –
